Assay results: paper PMC11876601 (Molecular Systems Biology, 2025)

Columns and labels:
NEK3 = tested on: NEK3; parameters: method as in Klaeger et al. (2017); conditions: NEK3, 4 cell line mix lysate, Kinobeads y, ref Klaeger et al. (2017), cited from earlier work
ADK = conditions: 4 cell line mix lysate, Kinobeads y, ref Klaeger et al. (2017), cited from earlier work
WEE1 = conditions: WEE1, 4 cell line mix lysate, Kinobeads y, ref Klaeger et al. (2017); cited from earlier work
INPPL1 = tested on: INPPL1; parameters: method as in Klaeger et al. (2017); conditions: INPPL1, 4 cell line mix lysate, Kinobeads y, ref Klaeger et al. (2017), cited from earlier work
ABL1 = conditions: ABL1, 4 cell line mix lysate, Kinobeads y, ref Klaeger et al. (2017); cited from earlier work
GAK = conditions: 4 cell line mix lysate, Kinobeads y, ref Klaeger et al. (2017), cited from earlier work
TBK1 = conditions: TBK1, 4 cell line mix lysate, Kinobeads y, ref Klaeger et al. (2017); cited from earlier work
GRB2 = tested on: GRB2; parameters: method as in Klaeger et al. (2017); conditions: GRB2, 4 cell line mix lysate, Kinobeads y, ref Klaeger et al. (2017), cited from earlier work
AZI2 = conditions: AZI2, 4 cell line mix lysate, Kinobeads y, ref Klaeger et al. (2017), cited from earlier work
MAP3K4 = conditions: MAP3K4, 4 cell line mix lysate, Kinobeads y, ref Klaeger et al. (2017), cited from earlier work
ADCK1 = tested on: ADCK1; parameters: method as in Klaeger et al. (2017); conditions: ADCK1, 4 cell line mix lysate, Kinobeads y, ref Klaeger et al. (2017), cited from earlier work
CSNK2A2 = conditions: CSNK2A2, 4 cell line mix lysate, Kinobeads y, ref Klaeger et al. (2017), cited from earlier work
CSNK2B = conditions: 4 cell line mix lysate, Kinobeads y, ref Klaeger et al. (2017), cited from earlier work
TBKBP1 = conditions: TBKBP1, 4 cell line mix lysate, Kinobeads y, ref Klaeger et al. (2017), cited from earlier work
IKBKE = conditions: 4 cell line mix lysate, Kinobeads y, ref Klaeger et al. (2017); cited from earlier work
EPHB6 = tested on: EPHB6; parameters: method as in Klaeger et al. (2017); conditions: EPHB6, 4 cell line mix lysate, Kinobeads y, ref Klaeger et al. (2017), cited from earlier work
EIF3J = conditions: 4 cell line mix lysate, Kinobeads y, ref Klaeger et al. (2017), cited from earlier work
BCR = conditions: 4 cell line mix lysate, Kinobeads y, ref Klaeger et al. (2017), cited from earlier work
TANK = conditions: 4 cell line mix lysate, Kinobeads y, ref Klaeger et al. (2017), cited from earlier work
CSNK2A1;CSNK2A3 = conditions: CSNK2A1;CSNK2A3, 4 cell line mix lysate, Kinobeads y, ref Klaeger et al. (2017), cited from earlier work
[1] = tested on: HPDE (immortalized pancreatic duct cell line); assay: Drug combination viability screen (ATPlite, 72 h); type: cell-based, human; conditions: combination with GEM
Description: (§1) Cell viability was assessed by measuring ATP levels to indicate metabolic activity.
(§2) Afterward, small amounts were transferred to 384-well intermediate plates (Greiner Bio-One GmbH, Germany). […] For drug combination screening, 1000 to 5000 cells were seeded into 384-well plates (CulturPlate™, Perkin Elmer, MA, USA) using a Multidrop™ Combi Reagent Dispenser (Thermo Scientific, MA, USA) in 50 µl medium per well 24 h prior to drug treatment (seeding densities see Appendix Table S1). […] The final DMSO concentration in each well was 0.2%. […] Eight wells per plate without library drug served as negative controls, and sixteen wells per plate containing 5 µM Staurosporine served as positive controls. Control plates not containing any drug were used to correct for incubation effects, and data quality was assessed by calculation of Z-prime of positive and negative controls according to1 Z-prime=1−3SDpos+3SDneg/[…] where SD is the standard deviation. […] Dose–response curves from the experimental and hypothetical data were compared, and shifts in AUC were used to describe combination effects (AUC∆ = AUChypothetical − AUCexperimental). […] Only combinations with R^2 > 0.8 in both conditions were considered in the synergy analysis.

Colo-357 cells = assay: Drug combination viability screen (ATPlite, 72 h); type: cell-based, human; conditions: Bliss model
Description: as §1, §2

Dan-G cells = assay: Drug combination viability screen (ATPlite, 72 h); type: cell-based, human; conditions: Bliss model
Description: as §1, §2

Capan-1 cells = assay: Drug combination viability screen (ATPlite, 72 h); type: cell-based, human; conditions: Bliss model
Description: as §1, §2

13 PDAC cell lines = assay: Phenotypic drug combination viability screen (ATPlite, 72 h), cell line panel; type: cell-based, human; conditions: single agent, 72 h
Description: as §1, §2

PANC-1 = assay: cells; parameters: Viability of PDAC cell lines, ATPlite luminescence, 11-dose single-agent curve fit; conditions: Homo sapiens, PANC-1, 72 h, read-out: EC50 [nM]
Method in brief: (§3)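 cells (1000 to 5000 per well) seeded 24 h before drug addition in a screen at 0.2% final DMSO. Controls were drug-free wells (negative) and 5 µM staurosporine (positive).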

Capan-1 = assay: cells; parameters: Viability of PDAC cell lines, ATPlite luminescence, 11-dose single-agent curve fit; conditions: Homo sapiens, CAPAN-1, 72 h, read-out: EC50 [nM]
Method in brief: as §3

PSN-1 = assay: cells; parameters: Viability of PDAC cell lines, ATPlite luminescence, 11-dose single-agent curve fit; conditions: Homo sapiens, PSN1, 72 h, read-out: EC50 [nM]
Method in brief: as §3

HuP-T4 = assay: cells; parameters: Viability of PDAC cell lines, ATPlite luminescence, 11-dose single-agent curve fit; conditions: Homo sapiens, HuP-T4, 72 h, read-out: EC50 [nM]
Method in brief: as §3

PaTu-8988-T = assay: cells; parameters: Viability of PDAC cell lines, ATPlite luminescence, 11-dose single-agent curve fit; conditions: Homo sapiens, PaTu 8988t, 72 h, read-out: EC50 [nM]
Method in brief: as §3

Colo-357 = assay: cells; parameters: Viability of PDAC cell lines, ATPlite luminescence, 11-dose single-agent curve fit; conditions: Homo sapiens, COLO357, 72 h, read-out: EC50 [nM]
Method in brief: as §3

HPDE = assay: cells; parameters: Viability of PDAC cell lines, ATPlite luminescence, 11-dose single-agent curve fit; conditions: HPDE, 72 h, read-out: EC50 [nM]
Method in brief: as §3

FAMPAC = assay: cells; parameters: Viability of PDAC cell lines, ATPlite luminescence, 11-dose single-agent curve fit; conditions: 72 h, read-out: EC50 [nM]
Method in brief: as §3

MiaPaCa-2 = assay: cells; parameters: Viability of PDAC cell lines, ATPlite luminescence, 11-dose single-agent curve fit; conditions: Homo sapiens, MIA PaCa-2, 72 h, read-out: EC50 [nM]
Method in brief: as §3

BxPC-3 = assay: cells; parameters: Viability of PDAC cell lines, ATPlite luminescence, 11-dose single-agent curve fit; conditions: Homo sapiens, BXPC-3, 72 h, read-out: EC50 [nM]
Method in brief: as §3

Suit2-07 = assay: cells; parameters: Viability of PDAC cell lines, ATPlite luminescence, 11-dose single-agent curve fit; conditions: 72 h, read-out: EC50 [nM]
Method in brief: as §3

Dan-G = assay: cells; parameters: Viability of PDAC cell lines, ATPlite luminescence, 11-dose single-agent curve fit; conditions: 72 h, read-out: EC50 [nM]
Method in brief: as §3

AsPC-1 = assay: cells; parameters: Viability of PDAC cell lines, ATPlite luminescence, 11-dose single-agent curve fit; conditions: Homo sapiens, ASPC1, 72 h, read-out: EC50 [nM]
Method in brief: as §3

30 PDAC cell lines = conditions: ref Jaaks et al, 2022; cited from earlier work

For `C=CCn1c(=O)c2cnc(Nc3ccc(N4CCN(C)CC4)cc3)nc2n1-c1cccc(C(C)(C)O)n1` [Adavosertib (MK-1775)], the EC50 (NEK3) is listed as 980 nM, the pKDapp (NEK3) is listed as 6.08 and the Kd (NEK3; read-out: KDapp) is listed as 837 nM. For the same molecule, the Kd (ADK; read-out: KDapp) was 12.6 nM, the EC50 (ADK) was 12.6 nM and the pKDapp (ADK) was 7.90. For the same molecule, the EC50 (WEE1) was […], the EC50 (INPPL1) was 1470 nM and the pKDapp (INPPL1) was 6.15. For the same molecule, the Kd (INPPL1; read-out: KDapp) was 712 nM, the EC50 (ABL1) was 6340 nM and the Kd (GAK; read-out: KDapp) was 418 nM. For the same molecule, the EC50 (GAK) was 745 nM, the pKDapp (GAK) was 6.38 and the EC50 (TBK1) was […]. The EC50 (GRB2) was 2710 nM, the pKDapp (GRB2) was 5.77 and the Kd (GRB2; read-out: KDapp) was 1690 nM. For the same molecule, the EC50 (AZI2) was 1750 nM, the pKDapp (AZI2) was 5.91 and the Kd (AZI2; read-out: KDapp) was 1230 nM. For the same molecule, the EC50 (MAP3K4) was 77.5 nM, the pKDapp (MAP3K4) was 7.28 and the Kd (MAP3K4; read-out: KDapp) was 52 nM. The EC50 (ADCK1) was 3050 nM, the pKDapp (ADCK1) was 5.72 and the Kd (ADCK1; read-out: KDapp) was 1900 nM. For the same molecule, the EC50 (CSNK2A2) was 428 nM, the pKDapp (CSNK2A2) was 6.38 and the Kd (CSNK2A2; read-out: KDapp) was 412 nM. For the same molecule, the Kd (CSNK2B; read-out: KDapp) was 387 nM, the EC50 (CSNK2B) was 387 nM and the pKDapp (CSNK2B) was 6.41. For the same molecule, the EC50 (TBKBP1) was 2180 nM, the pKDapp (TBKBP1) was 5.76 and the Kd (TBKBP1; read-out: KDapp) was 1730 nM. The EC50 (IKBKE) was […], the EC50 (EPHB6) was 549 nM and the pKDapp (EPHB6) was 6.47. The Kd (EPHB6; read-out: KDapp) was 337 nM, the Kd (EIF3J; read-out: KDapp) was 500 nM and the EC50 (EIF3J) was 500 nM. For the same molecule, the pKDapp (EIF3J) was 6.30, the Kd (BCR; read-out: KDapp) was 1910 nM and the EC50 (BCR) was 3990 nM. The pKDapp (BCR) was 5.72, the Kd (TANK; read-out: KDapp) was 1820 nM and the EC50 (TANK) was 2870 nM. For the same molecule, the pKDapp (TANK) was 5.74, the EC50 (CSNK2A1;CSNK2A3) was 627 nM and the pKDapp (CSNK2A1;CSNK2A3) was 6.20. The Kd (CSNK2A1;CSNK2A3; read-out: KDapp) was 627 nM.
In the case of `CO[C@H]1C[C@@H]2CC[C@@H](C)[C@@](O)(O2)C(=O)C(=O)N2CCCC[C@H]2C(=O)O[C@H]([C@H](C)C[C@@H]2CC[C@@H](OP(C)(C)=O)[C@H](OC)C2)CC(=O)[C@H](C)/C=C(\C)[C@@H](O)[C@@H](OC)C(=O)[C@H](C)C[C@H](C)/C=C/C=C/C=C/1C` [Ridaforolimus], the “sensitization of HPDE cells to GEM” value [1] is reported as “strongly sensitized”, the “synergy with GEM” value (Colo-357 cells) is reported as “synergized” and the “synergy with GEM” value (Dan-G cells) is reported as “synergized”. For the same molecule, the “synergy with GEM” value (Capan-1 cells) was “synergized”, the “median AUC across all cell lines” value (13 PDAC cell lines) was over 80% and the EC50 (PANC-1) was 4.17 nM. The EC50 (Capan-1) was 31.4 nM, the EC50 (PSN-1) was 0.26 nM and the EC50 (HuP-T4) was 15.9 nM. The EC50 (PaTu-8988-T) was 0.04 nM, the EC50 (Colo-357) was 127 nM and the EC50 (HPDE) was 0.56 nM. It also gave an EC50 (FAMPAC) of 0.13 nM, an EC50 (MiaPaCa-2) of 3.25 nM and an EC50 (BxPC-3) of 0.13 nM. The EC50 (Suit2-07) was 118 nM, the EC50 (Dan-G) was 87.2 nM and the EC50 (AsPC-1) was 0.22 nM.
With `CO[C@H]1C[C@@H]2CC[C@@H](C)[C@@](O)(O2)C(=O)C(=O)N2CCCC[C@H]2C(=O)O[C@H]([C@H](C)C[C@@H]2CC[C@@H](O)[C@H](OC)C2)CC(=O)[C@H](C)/C=C(\C)[C@@H](O)[C@@H](OC)C(=O)[C@H](C)C[C@H](C)/C=C/C=C/C=C/1C` [Rapamycin] the “sensitization of HPDE cells to GEM” value [1] was “strongly sensitized”, the “synergy with GEM” value (Colo-357 cells) was “synergized” and the “synergy with GEM” value (Dan-G cells) was “synergized”. For the same molecule, the “synergy with GEM” value (Capan-1 cells) was “synergized”, the “median AUC across all cell lines” value (13 PDAC cell lines) was over 80% and the EC50 (PANC-1) was 4.67 nM. The EC50 (Capan-1) was 0.11 nM, the EC50 (PSN-1) was 0.05 nM and the EC50 (HuP-T4) was 1.13 nM. The EC50 (PaTu-8988-T) was 0.05 nM, the EC50 (Colo-357) was 276 nM and the EC50 (HPDE) was 0.08 nM. It also gave an EC50 (FAMPAC) of 1.59 nM, an EC50 (MiaPaCa-2) of 1.11 nM and an EC50 (BxPC-3) of 0.08 nM. For the same molecule, the EC50 (Suit2-07) was 7.19 nM, the EC50 (Dan-G) was 0.09 nM and the EC50 (AsPC-1) was 50.8 nM.
In the case of `NC(=O)Nc1cc(-c2cccc(F)c2)sc1C(=O)N[C@H]1CCCNC1` [AZD7762], the “synergy with GEM” value (30 PDAC cell lines) is given as “nearly half of the cell lines”.
